Where a name gives a salt, the structure may show the parent alone.
Tested on: increase in intravesical pressure induced by carbachol in anesthetized dog
Test: Effect on the increase in intravesical pressure induced by carbachol in anesthetized dog
Type: in vivo
Conditions: 0.01 mg/kg injected intravenously 5 minutes before carbachol (1.8 μg/kg); anesthetized female Beagle dogs; N = 5; Before 6.2 ± 1.1; *P < 0.01 vs Before (ANOVA)
Description: Effect on the increase in intravesical pressure induced by carbachol in anesthetized dog
Female Beagle dogs weighing 8.0-15.0 kg were fasted for 24 hours and maintained under halothane anesthesia. A 12F Foley catheter was lubricated with water soluble jelly, inserted into the urethral orifice and advanced approximately 10 cm until the balloon tip was placed well inside the bladder. The balloon was then inflated with 5 ml of room air and catheter slowly withdrawn just part the first resistance that is felt at the bladder neck. Urine was completely drained out through the catheter, and 30 ml of biological saline was infused. The catheter was connected to pressure transducer, and intravesical pressure was continuously recorded. The test compound was injected intravenously at 5 minutes before the administration of carbachol (1.8 μg/kg).

SMILES: COC(=O)Nc1ccc(C(CCNC[C@H](O)COc2ccccc2)c2ccc(NC(=O)OC)cc2)cc1 [Test Compound (1), (2S)-1-Phenoxy-3-[3,3-bis[4-(methoxycarbonylamino)-phenyl]propylamino]-2-propanol sulfate (2:1) (crystal Form A)]
- Increase in intravesical pressure (mmHg): 4.9 ± 0.9* mmHg

From patent US20030032834A1, “Aminoalcohol derivatives” (priority 2000, published 2003)
